Laboratory results as given in patent US20050261306A1, “Anti-neurodegenerative agents” (priority 2002, published 2005).

Tests used:
NAIP = NAIP production by western blotting in retinoic acid treated H-SY5Y cells (Example 2); format: cell-based; conditions: low or high concentration of retinoic acid, 30 μl/ml of 10 mM candidate compound solution, one day, vs controls (lanes 1 and 3)
Protocol: • (1) 3 ml/well of DMEM-HG medium containing H-SY5Y cells (ATCC CRL 2266 strain obtained from American Type Culture Collection; 1×10^5 cells/ml), 10% fetal bovine serum (FBS), 100 units/ml penicillin, and 100 μg/ml streptomycin was aliquoted into each well of a 6 well plate, and incubated for two days at 37° C. Either 3 μl/well (lane 2) or 15 μl/well (lane 4) of all-trans retinoic acid (2 mM) was then added to each well. Wells were then incubated for tree days at 37° C. • (2) Next, 30 μl/ml of candidate compound solution (10 mM) was added to each well and incubated for one day at 37° C. After incubation, each well was washed with 0.25 M NaCl, then filled with 10% trichloroacetic acid (TCA) on ice, and kept on ice for ten minutes. Cells were collected with a scrap and centrifuged (14,000 rpm, ten minutes, 4° C.). To prepare the samples for electrophoresis, 100 μl of urea TX solution (9 M urea solution containing 2% Triton X-100 and 5% 2-mercaptoethanol), 25 μl of 10% lithium dodecyl sulfate (LDS) solution, and 2 μl of 2M Tris solution were added to the obtained pellets. The samples were stored at −80° C. • (3) The samples for electrophoresis obtained in (2) were homogenized and then 10 μl of each sample was loaded onto READYGELSJ (Bio Rad Laboratories) and electrophoresed at 120 V for 75 minutes to conduct SDS-PAGE. […]

Mongolian gerbils = assay: Mongolian gerbil common carotid artery occlusion, hippocampus CA1 region histology (Examples 6-1 to 6-4); format: in vivo; conditions: oral, 8, 40, 80 or 240 mg; carotid arteries occluded for ten minutes; hematoxylin-eosin sections
Protocol: A candidate compound was dissolved in physiological saline solution to prepare a 100 mM solution with the pH adjusted to 3 to 4 with 1 N NaOH as necessary. This solution was stored. The solution was diluted with physiological saline at time of use to prepare 0.5 ml of a solution containing 8 mg (Example 6-1), 40 mg (Example 6-2), 80 mg (Example 6-3), or 240 mg (Example 6-4) of a candidate compound. The above solution was administered to Mongolian gerbils. In Examples 6-1 to 6-3, 0.5 ml of the above solution was orally administered every 24 hours. In Example 6-4 the solutions was administered once.
Two hours after the second administration in Examples 6-1 to 6-3, both Mongolian gerbil common carotid arteries were occluded for ten minutes. The gerbils were sacrificed five days later. Two hours after administration in Example 6-4, both Mongolian gerbil common carotid arteries were occluded for ten minutes, and the gerbils were sacrificed three days later. Hematoxylin-eosin stained cross-sections of the brain hippocampus CA1 region tissue were prepared, and the stained sections were expand. […]

ALS model mice = assay: Therapeutic effect in ALS model mice (Cu/Zn-SOD gene transgenic mouse) (Example 7); format: in vivo
Protocol: The in vivo therapeutic effect of compound 1 was examined using an Amyotrophic Lateral Sclerosis (ALS) model animal.
A Cu/Zn-SOD gene transgenic mouse (Saishin Igaku, Vol. 57 (7), “new Amyotrophic Lateral Sclerosis (ALS) model animals”, July, 2002: p. 1622-1627: obtained from Dr. Masashi Aoki at Tohoku University, School of Medicine, Neurology) was used. The ALS model mice were divided into three groups (physiological saline administered group, compound 1 (8 mg/kg) administered group, compound 1 (40 mg/kg) administered group). Physiological saline, compound 1 (8 mg/kg), and compound 1 (40 mg/kg) were orally administered to each ALS mouse once a day from about 7 days before the predicted day of the symptom development (138-139 days after birth) until the day the mice died.

HeLa cells = assay: Cell-death suppressing effect in HeLa cells with cell-death inducing agent, Alamar Blue viable cell count (Example 3); format: cell-based; conditions: final concentration of 10 μM of each compound at the time of incubation
Protocol: • (1) HeLa cells (ATCC CCL2 strain obtained from American Type Culture Collection; 1×10^6 cells/ml) were incubated for ten hours at 37° C. under 5% CO2 in DMEM-HG medium supplemented with 10% FBS, 100 units/ml penicillin, and 100 μg/ml streptomycin in a T75 flask. A 250 μl solution containing a candidate compound (10 μM-10 mM) was added to 25 ml of the above culture and incubated for an additional 1, 1.5, or 2 days at 37° C. under 5% CO2. Cells were recovered, washed with the above medium, and counted. The cells were resuspended in the above fresh medium so the medium contained 1×10^5 cells/ml. • (2) 150 μl of the suspension obtained in (1) was added into each well of a 96 well plate and the plate was incubated for four hours at 37° C. […] After ten hours, luminescence was measured with a luminescence detector to determine the viable cell count at excitation and detection wavelengths of 530 nm and 560 nm, respectively. Moreover, the viable cell count of the control, which was prepared in the same way except that a candidate compound solution was not added “Control”) or DMSO was added instead of a candidate compound “DMSO”), was also determined. […]

SMILES | 160 kDa bands, presumably derived from NAIP (NAIP) | suppression of cell deformation and deciduation in the CA1 region (Mongolian gerbils) | Days before symptom development (P < 0.01) (ALS model mice; 8 mg/kg orally once a day) [days] | Days between symptom development and death (P < 0.01) (ALS model mice; 8 mg/kg orally once a day) [days] | Days of survival (P < 0.01) (ALS model mice; 8 mg/kg orally once a day) [days] | Days before symptom development (P < 0.01) (ALS model mice; 40 mg/kg orally once a day) [days] | Days between symptom development and death (P < 0.01) (ALS model mice; 40 mg/kg orally once a day) [days] | Days of survival (P < 0.01) (ALS model mice; 40 mg/kg orally once a day) [days] | effect on onset and on period between development of symptoms and death (ALS model mice; 40 mg/kg orally once a day) | Result (cell-death suppressing effect, tests of Example 3) (HeLa cells)
Clc1ccc(N2CCN(Cc3c[nH]c4ncccc34)CC2)cc1 [Compound 1] | significantly strong 160 kDa bands | dose-dependent suppression of cell deformation and deciduation in the CA1 region | 138.1 ± 1.9 | 23.6 ± 2.0 | 161.7 ± 3.3 | 145.2 ± 1.8 | 28.9 ± 1.6 | 174.6 ± 2.4 | delaying the onset and prolonging the period between the development of symptoms and the death | –
Cc1c(C2CCN(CCc3ccccc3)CC2)noc1-c1ccc(Cl)cc1 [Compound 2, 5-(4-chlorophenyl)-4-methyl-3-(1-(2-phenylethyl)piperidin 4-yl) isoxazole] | – | – | – | – | – | – | – | – | – | + or ±
